The subject of data set [1] is M. tuberculosis H37Rv. Kind of data set: MIC by microplate Alamar Blue assay (MABA). Type of data set: cell-based, Mycobacterium tuberculosis. As to conditions: 7H12 media. Background: The colour change of resazurin is a common sign of viable cells or microbes.
The subject of data set [2] is human embryonic kidney cells (HEK 293). Kind of data set: Toxicity to mammalian cells, percent cell death (Nucleocounter). As to conditions: positive control. The method, then:
(§1) Toxicity of the two compounds to mammalian cells was assayed in cell culture using mouse enteroendocrine cells (STC-1), human embryonic kidney cells (HEK 293; ATCC CRL-1573), and human lung fibroblasts (LL47; ATCC CCL-135). […] The human embryonic kidney cells and human lung fibroblasts were grown as per the American Type Culture Collection's recommendation, while the mouse enteroendocrine cells were grown as described by Vincent et al. (2001, Proc. Natl. Acad. Sci., 99:2392-2397). Media and sera were purchased from HyClone Laboratories (Logan, Utah). All cells were grown in 10% fetal bovine serum (FBS).
(§2) The number in the parenthesis represents the concentration of each compound in μg/mL. The percent cell death was benchmarked to 100% lysis with the positive control. The number of total cells and dead cells were counted after 6, 24, and 48 h using a Nucleocounter Automated cell counting system (New Brunswick; Edison, N.J.). Briefly, cells (STC, 200,000 cells/well; HEK 293, 200,000 cells/well; and LL47, 100,000 cells/well) were incubated in the appropriate medium for 24 h prior to addition of fresh media containing the antimicrobial compounds. After addition of the antimicrobial compound, the cell cultures were incubated at 37° C. with 5% CO2 for 6, 24, and 48 h. Cells were harvested by trypsinization using 0.25% trypsin-EDTA for 2 min. The trypsin was neutralized by addition of 200 μL of serum containing fresh medium. The cells were then harvested and transferred to 1.5 mL tubes, centrifuged (3-5 min at <100×g), and resuspended in 200 μL of fresh medium. For the total cell count, 100 μL of the suspension was added to lysis buffer (Reagent A100 in the starting kit (Cat No. M1293-0020, New Brunswick Scientific) for 30 s, which was stabilized using 100 μL of Reagent B. A positive control of completely lysed cells was used along with a negative control using sterile PBS (pH 7.4). For dead cell counts, 100 μL of cell lysate was counted without the use of lysis buffer or stabilizing buffer. All cell counts were obtained using the Nucleocounter automated cell counting system. Data were reported as the percent of cell death. The toxicity testing was done in replicate using three wells per test.

Data set [3] has as its system human lung fibroblasts (LL47). Described as above. The settings on record: positive control. The protocol:
as §1, §2

Data set [4] has as its system mouse enteroendocrine cells (STC-1). Described as above. The settings on record: positive control. The protocol: as §1, §2

For `NNC(=O)c1ccncc1` [Isoniazid], in data set [1], the “expected MIC range (quality control)” value lay within 0.025 to 0.1 µg/mL.
As to triton [reference compound], the lysis in data set [2], in data set [3] and in data set [4] was 100% in each case.

Source of the values: US20080261891A1, “COMPOSITIONS AND METHODS FOR USING SYRINGOPEPTIN 25A AND RHAMNOLIPIDS” (Utah State University, priority 2007, published 2008).
